Assay results as given in patent US20120244102A1, “AGENT FOR PREVENTING OR TREATING CROHN'S DISEASE, COMPRISING ORGANIC ACID POLYMER” (SANWA KAGAKU KENKYUSHO CO., LTD., priority 2010, published 2012).

Test system: mouse TNBS-induced Crohn's disease model
Assay: mouse TNBS-induced Crohn's disease model (pathological score, intestinal lesion score)
Assay type: in vivo
Conditions: for intestinal lesion score: scale 0-10, control group 8.1
Protocol: Seven-week-old male BALB/c Cr Slc mice were purchased from Japan SLC, Inc. After 5 days of breeding for taming, the mice were divided into 5 groups so as to eliminate the difference between body weights, and subjected to an experiment.
The hair on 2 square-cm of the abdomen of the mouse was shaved, and 1% TNBS was applied to the skin. At 7 days after the application of TNBS, the mouse was fixed under anesthesia by halothane inhalation, and 100 μL of 2.0% TNBS was injected from the rectum to initiate intestinal lesions in Crohn's disease.
In the propagermanium-administered group, 0.015% of the propagermanium was mixed with a standard feedstuff for mice CRF-1 (manufactured by Oriental Yeast Co., Ltd.) and administered by ad libitum feeding from immediately after the injection of TNBS to 3 days after the initiation. The average dose during the period of the administration of the propagermanium was calculated to be about 7.5 mg/kg/day as a dose of the propagermanium per day, from the body weight and food consumption.
In the prednisolone-administered group as a positive control, prednisolone was administered once a day as 10 mL/kg of 0.5% CMC suspension using an oral canula for mice from immediately after the injection of TNBS to 3 days after the initiation. The dose was set to be 1 mg/kg/day that is the maximum amount of a clinical general dose (30 to 40 mg/day/person).
In the salazosulfapyridine-administered group as a positive control, salazosulfapyridine was administered twice a day for 3 days as 10 mL/kg of 0.5% CMC suspension using an oral canula for mice from immediately after the injection of TNBS to 3 days after the initiation. Two dose groups: a low dose group (133 mg/kg/day) that is the maximum amount in view of a clinical general dose and a high dose group (400 mg/kg/day) that is effective in rat TNBS models, were set.
At 1, 2 and 3 days after the TNBS initiation, the pathological score (the total of the scores of weight-loss, diarrhea/loose stool and occult blood/hemorrhage) was evaluated according to the following criteria.
(A) Weight-loss score (when the body weight before the TNBS initiation is considered to be 100%) • 0: No decrease • 1: Decreased by within 5% • 2: Decreased by 5-10% • 3: Decreased by 10-20% • 4: Decreased by more than 20%
(B) Diarrhea/loose stool score • 0: Normal. A solid form is maintained. • 2: Semi-solid loose stool. Wet, and readily collapses when being touched. • 4: Diarrhea, with flowability.
(C) Occult blood/hemorrhage score • 0: Normal. No blood is incorporated in stool. • 2: Occult blood. Blood is incorporated in stool. Perianal is slightly dirty. • 4: Bloody stool. Blood is incorporated in stool. Perianal is dirty with blood.
At 3 days after the TNBS initiation, Evans Blue was administered intravenously. At 30 minutes after the administration, the mouse was sacrificed by cervical dislocation, from the colon to the anus were excised and the inner cavity was washed with physiological saline, the lumen was opened, and the degree of the lesions was scored. The intestinal lesion score was evaluated by observing the colon by using a stereomicroscope according to the following criteria. • 0: No damage. • 1: Hyperemia • 2: Hyperemia and thickening of gut walls. No ulcer. • 3: Ulcer is present, but is not thickened. • 4: Plural lesion sites are present. • 5: Widespread lesion sites (1 cm or more in total) • 6: Widespread lesion sites (1.5 cm or more in total) • 7: Widespread lesion sites (2 cm or more in total) • 8: Widespread lesion sites (2.5 cm or more in total) • 9: Widespread lesion sites (3 cm or more in total) • 10: Widespread lesion sites (3.5 cm or more in total)

Compound: 3-oxygermylpropionic acid polymer [propagermanium]
- pathological score (total of weight-loss, diarrhea/loose stool and occult blood/hemorrhage scores) (7.5 mg/kg propagermanium mixed in feed, 2 days after the TNBS initiation): significant effect of improving the pathological score was confirmed
- pathological score (total of weight-loss, diarrhea/loose stool and occult blood/hemorrhage scores) (7.5 mg/kg propagermanium mixed in feed, 3 days after the TNBS initiation): significant effect of improving the pathological score was confirmed

Compound: C[C@]12C=CC(=O)C=C1CC[C@@H]1[C@@H]2[C@@H](O)C[C@@]2(C)[C@H]1CC[C@]2(O)C(=O)CO [prednisolone]
- pathological score (total of weight-loss, diarrhea/loose stool and occult blood/hemorrhage scores) (1 mg/kg prednisolone oral, 2 days after the initiation): effect was not observed
- pathological score (total of weight-loss, diarrhea/loose stool and occult blood/hemorrhage scores) (1 mg/kg prednisolone oral, 3 days after the initiation): effect was observed
- intestinal lesion score (prednisolone 1 mg/kg oral, 3 days after the TNBS initiation): 5.2

Compound: O=C(O)c1cc(/N=N/c2ccc(S(=O)(=O)Nc3ccccn3)cc2)ccc1O [salazosulfapyridine]
- pathological score (total of weight-loss, diarrhea/loose stool and occult blood/hemorrhage scores) (133 mg/kg salazosulfapyridine oral (low dose group)): significant improving effect was not observed
- pathological score (total of weight-loss, diarrhea/loose stool and occult blood/hemorrhage scores) (400 mg/kg salazosulfapyridine oral (high dose group), 2 days after the initiation): improving effect was found
- pathological score (total of weight-loss, diarrhea/loose stool and occult blood/hemorrhage scores) (400 mg/kg salazosulfapyridine oral (high dose group), 3 days after the initiation): improving effect was found
- intestinal lesion score (salazosulfapyridine 133 mg/kg oral, 3 days after the TNBS initiation): 6.1
- intestinal lesion score (salazosulfapyridine 400 mg/kg oral, 3 days after the TNBS initiation): 6.8
